These are literature values, as cited in publication PMC13515262 (Molecules, 2026).

This series has as its target T1, AChE (Electrophorus electricus, UniProt O42275).
T1 construct: The reaction was carried out using AChE serum obtained from the electric eel; from tissue; host or cells: 'serum' of the electric eel (so in the source)
The following applies: ref 39 (CAPE), 35 (Spiraeoside), 43 (olivetol), 36 (Vescalagin), 34 (Magnofluorine), 40 (taxifolin), 33 (coumestrol); read-out: Ki AChE (literature).

T1 sequence (O42275 24-633): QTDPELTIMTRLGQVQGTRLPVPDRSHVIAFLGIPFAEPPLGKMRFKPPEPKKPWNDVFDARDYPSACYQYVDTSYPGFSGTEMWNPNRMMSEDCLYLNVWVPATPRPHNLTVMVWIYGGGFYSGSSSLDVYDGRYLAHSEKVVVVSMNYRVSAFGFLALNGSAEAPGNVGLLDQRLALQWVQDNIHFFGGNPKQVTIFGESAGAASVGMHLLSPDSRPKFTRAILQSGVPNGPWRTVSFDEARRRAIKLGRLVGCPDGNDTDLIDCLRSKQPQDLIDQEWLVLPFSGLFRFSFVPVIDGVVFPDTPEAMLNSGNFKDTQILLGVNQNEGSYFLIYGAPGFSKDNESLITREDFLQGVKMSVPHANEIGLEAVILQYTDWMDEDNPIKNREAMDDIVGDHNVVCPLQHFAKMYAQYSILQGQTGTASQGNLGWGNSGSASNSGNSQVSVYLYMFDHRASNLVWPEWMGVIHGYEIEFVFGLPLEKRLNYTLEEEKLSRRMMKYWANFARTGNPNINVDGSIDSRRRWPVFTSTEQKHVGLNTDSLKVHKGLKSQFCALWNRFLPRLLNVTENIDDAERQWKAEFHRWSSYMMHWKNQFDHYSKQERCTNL

As a reminder, the Ki is a measure of affinity in units of concentration, obtained from inhibition or displacement. Consider `O=C(/C=C/c1ccc(O)c(O)c1)OCCc1ccccc1` [CAPE, caffeic acid phenethyl ester], for which the inhibition constant Ki is 0.518 nM.

Take `O=c1c(O)c(-c2ccc(O[C@@H]3O[C@H](CO)[C@@H](O)[C@H](O)[C@H]3O)c(O)c2)oc2cc(O)cc(O)c12` [Spiraeoside]: the inhibition constant (Ki) was 3.4 nM.
